Experiments:
Format in all cases: physicochemical
[1] = Cleavage of 1 (CPT600) after photo-reaction in solution (UV irradiation, HCl treatment, RP-HPLC UV/MS); conditions: BPC + All MS
Protocol: In a 100 μL PCR tube, 20 μL 73 μM 1 (CPT600) was irradiated at 4° C. for 5 min in the caproBox (310 nm version, caprotec bioanalytics GmbH, Berlin, Germany). 1.7 μL 37% HCl was added, mixed and the solution was incubated on a thermoshaker at 37° C. for 2 h. Then 100 μL Milli-Q water and 9 μL 2N NaOH were added and mixed. The resulting solution as analyzed by RP-HPLC coupled to a UV detector and a mass spectrometer (FIG. 6 and Table 2a) as described in example 1. As a control, the same sample but with only very brief incubation under acidic conditions (r.t. for about 10 s instead of 37° C. for 2 h) was prepared (FIG. 7 and Table 2b).

[2] = Cleavage of 1 (CPT600) after photo-reaction on CPG-pN3, with CPG-Ac and in-solution controls; design: Area: unit not given here
Protocol: 20 μL 10 mg/mL 1 (CPT600)-loaded CPG-pN3 from example 1 were transferred into a 100 μL PCR tube, centrifuged, the supernatant was discarded and 20 μL in water was added. The suspension was irradiated at 4° C. for 5 min (with re-suspending every 30 s) in the caproBox (310 nm version, caprotec bioanalytics GmbH, Berlin, Germany). 1.7 μL 37% HCl was added, mixed and the solution was incubated on a thermoshaker at 37° C. for 2 h. Then 100 μL Milli-Q water and 9 μL 2N NaOH were added and mixed. After centrifugation, the resulting supernatant was analyzed by RP-HPLC coupled to a UV detector and a mass spectrometer as described in example 1. As a control, the same sample but with only very brief incubation under acidic conditions (r.t. for about 10 s instead of 37° C. for 2 h) was prepared.
Further controls included using 1 (CPT600)-treated CPG-Ac from example 1 (short and long acid treatment) instead of 1 (CPT600)-loaded CPG-pN3 and 1 (CPT600) in solution (short and long acid treatment) as described in example 2. All six experiments were performed side-by-side.

[3] = Cleavage reaction of photo-reacted compound 11 (12) with HCl / 2-nitrobenzhydrazide, LC-MS; conditions: for Area/a.u. (LC-MS EIC peak): 45 μM 12, 1 h room temperature
Protocol: A solution of 75 μL 56 μM 11 (CPT727, Capture Compound bearing tetrazine as sorting function and a chemically cleavable photo-reactivity function) in 50% acetonitrile was irradiated with UV light (λmax=310 nm) for 5 min at 4° C. in the caproBox to activate the reactivity function yielding 12 (Scheme 12).
Cleavage of the photo-reacted reactivity function (15) from 12 yielding also 17 as a product (Scheme 13) was investigated under several conditions summarized in Table 5. The reaction was performed in a final volume of 10 μl for 1 h at room temperature. Each reaction mixture contained 8 μl of the above described solution of 12 (45 μM final concentration), 1 μl 100 mM or 10 mM 2-nitrobenzhydrazide in DMSO or just DMSO and 1 μl 100 mM or 10 mM HCl in water or just water. Analysis was performed by LC-MS. Integration of peak areas corresponding to the respective species is included into Table 5.

[4] = 1 (CPT600) after UV irradiation and HCl 37 °C 2 h
[5] = In solution, 0 h HCl, BPC + All MS
[6] = In solution, 0 h HCl, UV 254 nm
[7] = CPG-Ac instead of CPG-pN3, 2 h acidic treatment
[8] = In solution, 2 h HCl, UV 254 nm
[9] = In solution, 2 h HCl, BPC + All MS
[10] = On CPG-Ac, 2 h HCl, BPC + All MS
[11] = On CPG-pN3, 2 h HCl, BPC + All MS
[12] = c(HCl) 0 mM, c(2-nitrobenzhydrazide) 0 mM
[13] = c(HCl) 0 mM, c(2-nitrobenzhydrazide) 1 mM
[14] = c(HCl) 0 mM, c(2-nitrobenzhydrazide) 10 mM
[15] = c(HCl) 1 mM, c(2-nitrobenzhydrazide) 0 mM
[16] = c(HCl) 1 mM, c(2-nitrobenzhydrazide) 1 mM
[17] = c(HCl) 1 mM, c(2-nitrobenzhydrazide) 10 mM
[18] = c(HCl) 10 mM, c(2-nitrobenzhydrazide) 0 mM
[19] = c(HCl) 10 mM, c(2-nitrobenzhydrazide) 1 mM
[20] = c(HCl) 10 mM, c(2-nitrobenzhydrazide) 10 mM

In the case of `C#CCNC(=O)C1(C(=O)NCCCC[C@@H](C(=O)NCCc2ccc(NC(=O)CCCCCCC(=O)O)cc2)[N+](C)(C)C)COC(c2ccc(C3(C(F)(F)F)N=N3)cc2)OC1` (stereo partly shown) [Compound 2], the “Area (MS-peak integration)” value [1, 4] is reported as 167125312 and the “Area Frac. %” value [1, 4] is reported as 2.52%.

With `C#CCNC(=O)C1(C(=O)NCCCC[C@@H](C(=O)NCCc2ccc(NC(=O)CCCCCCC(=O)NO)cc2)[N+](C)(C)C)COC(c2ccc(C(O)C(F)(F)F)cc2)OC1` (stereo partly shown) [Compound 3] the “Area (MS-peak integration)” value [1, 4] was 432395200, the “Area Frac. %” value [1, 4] was 6.52% and the “Area (MS-peak integration)” value ([1]; 1 (CPT600) after UV irradiation, very brief acid (r.t. about 10 s, control)) was 3091667200. For the same compound, the Area [2, 5] was 2114062848, the “Area Frac %” value [2, 5] was 100.00% and the Area [2, 6] was 31.679. For the same compound, the “Area Frac %” value [2, 6] was 100.00%.

With `C#CCNC(=O)C1(C(=O)NCCCC[C@@H](C(=O)NCCc2ccc(NC(=O)CCCCCCC(=O)O)cc2)[N+](C)(C)C)COC(c2ccc(C(O)C(F)(F)F)cc2)OC1` (stereo partly shown) [Compound 4] the “Area (MS-peak integration)” value [1, 4] was 386267200 and the “Area Frac. %” value [1, 4] was 5.82%.

For `O=Cc1ccc(C(O)C(F)(F)F)cc1` (stereo not shown) [Compound 6], the “amount of cleavage fragment relative to the respective CPG-pN3 sample (UV peak areas)” value [2, 7] was 8.0%, the “amount of cleavage fragment relative to the respective sample in solution (UV peak areas)” value [2, 7] was 3.9% and the Area [2, 8] was 63.355. The “Area Frac %” value [2, 8] was 55.35%, the Area ([2]; On CPG-Ac, 2 h HCl, UV 254 nm) was 2.4903 and the “Area Frac %” value ([2]; On CPG-Ac, 2 h HCl, UV 254 nm) was 30.94%. The Area ([2]; On CPG-pN3, 2 h HCl, UV 254 nm) was 30.9728, the “Area Frac %” value ([2]; On CPG-pN3, 2 h HCl, UV 254 nm) was 85.18% and the “amount of cleavage fragment relative to the respective sample in solution (UV peak areas)” value ([2]; UV-irradiated 1 (CPT600)-loaded CPG-pN3, 2 h acidic treatment) was 48.9%.

With `C#CCNC(=O)C(CO)(CO)C(=O)NCCCC[C@@H](C(=O)NCCc1ccc(NC(=O)CCCCCCC(=O)O)cc1)[N+](C)(C)C` [Compound 7] the “Area (MS-peak integration)” value [1, 4] was 1798498944, the “Area Frac. %” value [1, 4] was 27.10% and the “amount in supernatant of CPG bead samples compared to solution sample (base peak MS peak areas)” value ([2]; 2 h acidic treatment) was 16.1%. The Area [2, 9] was 1793367808, the “Area Frac %” value [2, 9] was 35.46% and the Area [2, 8] was 15.084. The “Area Frac %” value [2, 8] was 13.18%, the Area [2, 10] was 114680936 and the “Area Frac %” value [2, 10] was 41.23%. The Area [2, 11] was 288188416 and the “Area Frac %” value [2, 11] was 65.33%.

In the case of `Cc1nnc(-c2ccc(CN(CC(=O)NCCCCNc3ncnc4c3ncn4C3OC(CSCC[C@H](N)C(=O)O)C(O)C3O)C(=O)CC/C=N/N(C)C(=O)c3ccc(C(O)C(F)(F)F)cc3)cc2)nn1` (stereo partly shown) [Compound 12], the fraction cleaved ([3]; 1 mM or higher concentration of HCl alone, room temperature, within 1 h) is reported as “more than 60%”, the “detection of starting material” value ([3]; 10 mM HCl and 1 mM or 10 mM 2-nitrobenzhydrazide) is reported as “no longer detected” and the “Area/a.u. (LC-MS EIC peak)” value [3, 12] is reported as 865231808 a.u. The “Area/a.u. (LC-MS EIC peak)” value [3, 13] was 601044672 a.u, the “Area/a.u. (LC-MS EIC peak)” value [3, 14] was 616590720 a.u and the “Area/a.u. (LC-MS EIC peak)” value [3, 15] was 315121856 a.u. For the same compound, the “Area/a.u. (LC-MS EIC peak)” value [3, 16] was 130056936 a.u, the “Area/a.u. (LC-MS EIC peak)” value [3, 17] was 5361744 a.u and the “Area/a.u. (LC-MS EIC peak)” value [3, 18] was 17781000 a.u.

For `CN(N)C(=O)c1ccc(C(O)C(F)(F)F)cc1` (stereo not shown) [Compound 15], the “Area/a.u. (LC-MS EIC peak)” value [3, 12] was 15540301 a.u, the “Area/a.u. (LC-MS EIC peak)” value [3, 13] was 19033696 a.u and the “Area/a.u. (LC-MS EIC peak)” value [3, 14] was 20155070 a.u. For the same compound, the “Area/a.u. (LC-MS EIC peak)” value [3, 15] was 75526584 a.u, the “Area/a.u. (LC-MS EIC peak)” value [3, 16] was 93782304 a.u and the “Area/a.u. (LC-MS EIC peak)” value [3, 17] was 120971320 a.u. For the same compound, the “Area/a.u. (LC-MS EIC peak)” value [3, 18] was 101335752 a.u, the “Area/a.u. (LC-MS EIC peak)” value [3, 19] was 119463976 a.u and the “Area/a.u. (LC-MS EIC peak)” value [3, 20] was 130339744 a.u.

For `Cc1nnc(-c2ccc(CN(CC(=O)NCCCCNc3ncnc4c3ncn4C3OC(CSCC[C@H](N)C(=O)O)C(O)C3O)C(=O)CC/C=N/NC(=O)c3ccccc3[N+](=O)[O-])cc2)nn1` (stereo partly shown) [Compound 17], the “Area/a.u. (LC-MS EIC peak)” value [3, 13] was 50293356 a.u, the “Area/a.u. (LC-MS EIC peak)” value [3, 14] was 116403456 a.u and the “Area/a.u. (LC-MS EIC peak)” value [3, 16] was 623734464 a.u. For the same compound, the “Area/a.u. (LC-MS EIC peak)” value [3, 17] was 1157550976 a.u, the “Area/a.u. (LC-MS EIC peak)” value [3, 19] was 694334592 a.u and the “Area/a.u. (LC-MS EIC peak)” value [3, 20] was 1188207104 a.u.
